# Assay results reported in PMC2528830 (British Journal of Pharmacology, 2008).
# How the values were obtained:
# [1] = molecular target: T1, GPR119 (Homo sapiens, UniProt Q8TDV5); test: cAMP accumulation in HEK293-GPR119 vs untransfected cells; format: cell-based
# T1 sequence (Q8TDV5 1-335): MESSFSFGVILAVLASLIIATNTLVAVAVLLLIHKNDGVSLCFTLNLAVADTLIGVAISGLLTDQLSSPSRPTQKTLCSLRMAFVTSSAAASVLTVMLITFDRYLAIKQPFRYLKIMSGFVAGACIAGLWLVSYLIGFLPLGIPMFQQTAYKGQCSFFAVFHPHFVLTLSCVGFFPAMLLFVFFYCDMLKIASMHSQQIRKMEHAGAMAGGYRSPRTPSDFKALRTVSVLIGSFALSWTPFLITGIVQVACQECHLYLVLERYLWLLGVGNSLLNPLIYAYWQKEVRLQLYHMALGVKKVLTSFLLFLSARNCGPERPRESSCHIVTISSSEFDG
# [2] = molecular target: T1, GPR119; test: insulin secretion at […] in RINm5f-GPR119 vs parental RINm5f cells; format: cell-based
structure (smiles),measurement,setting,value
CCCC[C@H]1CC[C@H](c2nc(-c3ccncc3)no2)CC1 [PSN375963],EC50,[1],13.9 µM
CCCCCCCC/C=C\CCCCCCCC(=O)NCCO [oleoylethanolamide],insulin secretion at 10 μM in RINm5f-GPR119 vs parental RINm5f cells,[2],RINm5f cells transfected with human GPR119 (RIN-119 cells) responded to OEA and had an increased response to OLPC
